Biological target: fibroblast growth factor receptor 1 (FGFR1) (Homo sapiens, UniProt P11362)
Test: cell-free kinase inhibition, caliper mobility shift assay, ATP at Km ([…])
Type: biochemical

fibroblast growth factor receptor 1 (FGFR1), sequence (P11362 22-822): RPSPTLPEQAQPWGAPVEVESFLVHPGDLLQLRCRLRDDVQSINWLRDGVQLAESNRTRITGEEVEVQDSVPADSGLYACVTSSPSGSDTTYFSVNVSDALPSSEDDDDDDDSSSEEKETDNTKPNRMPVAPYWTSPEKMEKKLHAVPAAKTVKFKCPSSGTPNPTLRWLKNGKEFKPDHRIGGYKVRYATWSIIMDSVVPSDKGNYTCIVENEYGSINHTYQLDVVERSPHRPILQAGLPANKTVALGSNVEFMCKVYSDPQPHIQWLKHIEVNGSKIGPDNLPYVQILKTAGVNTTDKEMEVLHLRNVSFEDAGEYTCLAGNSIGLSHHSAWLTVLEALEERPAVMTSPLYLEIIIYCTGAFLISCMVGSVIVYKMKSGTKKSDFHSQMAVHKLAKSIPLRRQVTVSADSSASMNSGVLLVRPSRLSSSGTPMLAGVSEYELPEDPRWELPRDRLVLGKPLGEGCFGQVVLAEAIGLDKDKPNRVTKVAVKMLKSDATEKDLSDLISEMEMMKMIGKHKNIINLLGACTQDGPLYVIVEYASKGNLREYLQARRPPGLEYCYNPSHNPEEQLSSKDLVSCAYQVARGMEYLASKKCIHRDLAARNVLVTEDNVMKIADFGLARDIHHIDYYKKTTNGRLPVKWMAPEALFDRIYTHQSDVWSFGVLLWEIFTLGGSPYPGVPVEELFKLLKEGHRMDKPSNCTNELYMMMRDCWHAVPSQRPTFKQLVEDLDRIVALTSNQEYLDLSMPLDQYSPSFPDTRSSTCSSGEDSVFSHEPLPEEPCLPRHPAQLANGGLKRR

IC50: 2700 ± 540 nM
SMILES: CCOc1ccc(/C=C2\CC[C@@]3(C2=O)[C@@H](c2ccc(OCC)cc2)CN(C)[C@]32C(=O)c3cccc4cccc2c34)cc1 [G141]
